Source: patent US7169805B2 (Nicox S.A., priority 2003, dated 2007)

Assays:
[1] = system: isolated rabbit thoracic aorta preparations; test: Vasorelaxing activity in isolated rabbit thoracic aorta rings precontracted with noradrenaline; assay type: cell-based; settings: for IC50 / Emax: Oryctolagus cuniculus, NA (1 μM) precontracted rings with functional endothelium; for IC50: read-out: IC50 (concentration producing 50% of the maximum relaxation); for Emax: at 100 μM of tested compound, read-out: Emax (maximum efficacy)
Procedure: Male New Zealand rabbits were anaesthetized with thiopental-Na (50 mg/kg, iv), sacrificed by exsanguinations and then the thorax was opened and the aorta dissected. Single ring preparations (4 mm in length) of thoracic aorta were set up in physiological salt solution (PSS) at 37° C. in small organ chambers (5 ml). The composition of PSS was (mM): NaCl 130, NaHCO3 14.9, KH2PO4 1.2, MgSO4 1.2, HEPES 10, […] (95% O2/5% CO2; pH 7.4). Each ring was mounted under 2 g passive tension. Isometric tension was recorded with a Grass transducer (Grass FT03) attached to a BIOPAC MP150 System. Preparations were allowed to equilibrate for 1 h, then contracted submaximally with noradrenaline (NA, 1 μM) and, when the contraction was stable, acetylcholine (ACh, 10 μM) was added. A relaxant response to ACh indicated the presence of a functional endothelium. […] When a stable precontraction was reached, a cumulative concentration-response curve for each of the tested compounds was obtained in the presence of a functional endothelium. Time intervals between different concentrations were based on the time needed to reach a full response. Each arterial ring was exposed to only one combination of inhibitor and the tested compounds. Moreover, the effect of the soluble guanylyl cyclase inhibitor ODQ (1-H-(1,2,4)-oxadiazol (4,3-a)quinoxalin-1-one) on the dilator responses elicited by the compounds was examined preincubating the aortic rings with ODQ (10 μM) for 20 min.
Results are expressed as IC50 value, which is the concentration of the tested compound producing 50% of the maximum relaxation, and as Emax value which is the maximum efficacy at a concentration of 100 μM of the tested compound.
During the experimental period, the plateau obtained with NA was stable without significant spontaneous loss of contraction in the aortic rings.
Furthermore, in experiments performed in presence of ODQ (10 μM), the vasorelaxant responses to all the tested compounds were inhibited.

SHR rats = test: Antihypertensive activity in a genetic model of hypertension (SHR rats), arterial pressure; assay type: in vivo, rat; settings: single oral dose 30 mg/Kg; for Arterial pressure (MAP): 4 hours after treatment; for Reduction of blood pressure vs the control: 4 hrs after treatment
Procedure: (§1) SHR rats were treated orally in a single dose of 30 mg/Kg. After 2 hours the animal were anaesthetized with tiopental-Na; a fluid catheter was inserted in a right carotid artery and connected to a transducer for the homodynamic measurements. 4 hours after the treatment the arterial pressure (MAP, mmHg) was measured.

ACE = molecular target: T1, ACE (Rattus norvegicus, UniProt P47820); test: Plasma ACE activity of treated SHR rats, spectrophotometric FAPGG hydrolysis; assay type: in vivo; settings: heparinized plasma of SHR rats after single oral dose 30 mg/Kg, collected at end of experiment
T1 construct: from tissue; host or cells: heparinized plasma of orally treated SHR rats
T1 sequence (P47820 36-1238 limits assumed): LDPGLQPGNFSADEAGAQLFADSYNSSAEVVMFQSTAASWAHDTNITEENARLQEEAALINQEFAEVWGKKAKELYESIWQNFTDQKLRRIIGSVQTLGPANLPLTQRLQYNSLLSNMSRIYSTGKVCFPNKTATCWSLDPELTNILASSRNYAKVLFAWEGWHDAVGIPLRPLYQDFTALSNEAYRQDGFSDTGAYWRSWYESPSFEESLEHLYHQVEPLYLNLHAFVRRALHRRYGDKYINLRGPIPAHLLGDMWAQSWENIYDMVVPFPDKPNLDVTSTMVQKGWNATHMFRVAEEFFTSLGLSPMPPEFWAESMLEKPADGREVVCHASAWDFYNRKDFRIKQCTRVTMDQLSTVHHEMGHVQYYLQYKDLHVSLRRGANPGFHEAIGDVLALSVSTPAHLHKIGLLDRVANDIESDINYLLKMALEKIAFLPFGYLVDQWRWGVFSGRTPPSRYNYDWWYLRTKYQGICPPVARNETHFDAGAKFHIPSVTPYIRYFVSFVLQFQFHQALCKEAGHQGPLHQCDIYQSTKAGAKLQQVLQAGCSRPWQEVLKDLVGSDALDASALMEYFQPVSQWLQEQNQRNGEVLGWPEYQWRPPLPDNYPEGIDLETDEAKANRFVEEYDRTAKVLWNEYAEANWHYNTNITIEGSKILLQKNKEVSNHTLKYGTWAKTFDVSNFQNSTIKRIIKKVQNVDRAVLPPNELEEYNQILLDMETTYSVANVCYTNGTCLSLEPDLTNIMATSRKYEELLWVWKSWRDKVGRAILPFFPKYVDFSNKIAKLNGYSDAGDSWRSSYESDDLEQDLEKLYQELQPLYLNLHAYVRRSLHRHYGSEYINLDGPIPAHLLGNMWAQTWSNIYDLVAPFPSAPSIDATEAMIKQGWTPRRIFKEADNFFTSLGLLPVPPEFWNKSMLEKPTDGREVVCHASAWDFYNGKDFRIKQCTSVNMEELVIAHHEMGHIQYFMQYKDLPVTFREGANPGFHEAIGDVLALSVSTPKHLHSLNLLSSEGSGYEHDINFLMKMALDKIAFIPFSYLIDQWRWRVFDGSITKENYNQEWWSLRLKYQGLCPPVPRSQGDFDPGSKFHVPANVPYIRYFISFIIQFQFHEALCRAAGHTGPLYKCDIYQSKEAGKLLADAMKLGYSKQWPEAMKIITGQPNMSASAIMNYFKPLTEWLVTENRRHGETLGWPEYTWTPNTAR
Procedure: as §1
At the end of the experiments the blood was collected from the right carotid. The heparinized blood samples were centrifuged at 1000 g for 20 min at 4° C. The plasma was stored at −20° C. until the ACE activity measurements.
The ACE activity was determined by a spectrophotometric method (Sigma) based on the enzymatic reaction catalysed by ACE, where the FAPGG was hydrolysed to FAP.
FAPGG hydrolysis produced a decrease in the absorbance at 340 nm, a marker of ACE activity in the sample. Results, reported in table 3, were expressed as U/L in heparinized plasma.

[2] = given orally; cited from earlier work

In the case of C[C@H](CSC(=O)OCCCCO[N+](=O)[O-])C(=O)N1CCC[C@H]1C(=O)O [Ex. 2, 1-[(2S)-3-(4-Nitrooxybutoxycarbonyl)mercapto-2-methyl-1-oxopropyl]-L-proline], the IC50 [1] is reported as 6 ± 0.87 µM and the Emax [1] is reported as 96.9 ± 1.87%.

In the case of CC(=O)SC[C@@H](C)C(=O)N1CCC[C@H]1C(=O)OCCCO[N+](=O)[O-] [Ex. 8, 1-[3-(Acetylthio)-(2S)-methyl-1-oxopropyl]-L-proline 3-nitrooxypropyl ester], the IC50 [1] is reported as 26.1 ± 3.91 µM, the Emax [1] is reported as 77.9 ± 3.21% and the “Arterial pressure (MAP)” value (SHR rats) is reported as 132 mmHg. The “Reduction of blood pressure vs the control” value (SHR rats) was 35% and the ACE activity (ACE) was 59 U/L.

With C[C@H](CS)C(=O)N1CCC[C@H]1C(=O)O [Captopril, 1-[(2S)-3-mercapto-2-methylpropionyl]-L-proline, reference compound] the Emax [1] was 0%, the “Relaxation of aortic rings (in words)” value ([1]; any of the concentrations tested, curve not different from vehicle alone) was “did not produce relaxation” and the “Arterial pressure (MAP)” value (SHR rats) was 145 mmHg. The Bioavailability [2] was “about 75%” and the “Elimination route (in words)” value [2] was “most of the drug is eliminated in urine”.

CC(=O)SC[C@@H](C)C(=O)N1CCC[C@H]1C(=O)N[C@H](Cc1ccccc1)C(=O)Oc1cccc(CO[N+](=O)[O-])c1 [Ex. 9, 1-[(2S)-3-(Acetylthio)-2-methyl-1-oxopropyl]-L-prolyl-L-phenylalanine 3-nitrooxymethyl phenyl ester] showed an IC50 [1] of 3.2 ± 0.65 µM and an Emax [1] of 96.8 ± 0.65%.

For CC(=O)SC[C@@H](C)C(=O)N1CCC[C@H]1C(=O)Oc1cccc(CO[N+](=O)[O-])c1 [Ex. 8b, 1-[3-(acetylthio)-(2S)-methyl-1-oxopropyl]-L-proline 3-nitrooxymethylphenyl ester], the IC50 [1] was 4.01 ± 1.18 µM, the Emax [1] was 92.4 ± 4.15% and the “Arterial pressure (MAP)” value (SHR rats) was 116 mmHg. For the same molecule, the “Reduction of blood pressure vs the control” value (SHR rats) was 43% and the ACE activity (ACE) was 53 U/L.

For C[C@H](CSC(=O)OCO[N+](=O)[O-])C(=O)N1CCC[C@H]1C(=O)O [Ex. 3, 1-[(2S)-3-(Nitrooxymethoxycarbonyl)mercapto-2-methyl-1-oxopropyl]-L-proline], the IC50 [1] was 6.7 ± 0.84 µM and the Emax [1] was 97.9 ± 1.51%.
